{"source": "patent US20240172744A1", "about": "“H[…] SOLUTION FOR REPAIRING KIDNEY INJURY AND USE THEREOF” (WUHAN UNIVERSITY, priority 2022, published 2024)", "key": {"[1]": {"system": "kidney from a donation after circulatory death donor of a rat", "assay": "hypothermic oxygenated perfusion of rat donation-after-circulatory-death kidney ex-vivo, perfusion parameters (intrarenal resistance)", "conditions": "Examples 1-4: 200, 400, 600, 800 μM in KPS-1 solution, warm ischemia 30, 45, 60, 90 min, 0-4 °C, 30 mmHg, 2 h perfusion, FIGS. 2A-2D", "protocol": "The method for performing hypothermic oxygenated perfusion on a kidney from a donation after circulatory death donor of a rat by using the perfusion fluid according to the examples of the present invention specifically includes the following steps: for a donor organ donated after a cardiac death, in the kidney acquisition process, performing in-situ organ lavage by using heparin sodium saline with a temperature of 4° C. to effectively remove thrombus in large blood vessels and to relieve the obstacle of the thrombus to the delivery of carbon monoxide released by carbon monoxide-releasing molecules to the kidney, combining ex-vivo hypothermic oxygenated perfusion with the carbon monoxide released by the carbon monoxide-releasing molecules to specifically achieve the vasodilation, the removal of microthrombus and the recovery of the patency of the microcirculation, and evaluating the function and quality of the kidney through perfusion parameters (perfusion flow and intrarenal resistance) and a macroscopic kidney state, wherein the perfusion parameters can reflect the kidney function to a certain degree; a kidney with a good function can be subjected to allogeneic kidney transplantation and a kidney with a poor function will be discarded. […]"}, "[2]": {"system": "kidney from a donation after circulatory death donor of a rat", "assay": "H&E pathological examination of renal tissues after 2 h of kidney perfusion", "conditions": "Examples 1-4: 200, 400, 600, 800 μM in KPS-1 solution; warm ischemia 30, 45, 60, 90 min; after 2 h perfusion; FIGS. 3A-3D", "protocol": "After 2 h of kidney perfusion according to the methods of Examples 1-4, 1 cm^3 of renal tissues were taken out and fixed in neutral formaldehyde for storage, and then dehydrated, embedded in paraffin, sectioned and then stained by H&E, and finally photographed under a microscope to observe morphological changes and pathological analysis of tissues."}}}
{"substance": "carbon monoxide-releasing molecules-401", "values": [{"measurement": "intrarenal resistance during hypothermic oxygenated perfusion", "setting": "[1]; listed as carbon monoxide-releasing molecule", "value": "continuously decrease"}, {"measurement": "intrarenal resistance during hypothermic oxygenated perfusion", "setting": "[1]; listed as carbon monoxide-releasing molecules", "value": "significantly reduced and maintained to be stable"}, {"measurement": "pathological examination of renal tissues (glomeruli, renal tubules, renal interstitium; H&E)", "setting": "[2]", "value": "no obvious abnormality found"}]}
